Active and inactive are the calls of the source. The calls are words filed in the database; no cut-off is given here.
Legend:
Format in all cases: functional, organism-based
Rattus norvegicus [1] = test: Antiosteoporotic effect in OVX-induced Wistar rat osteoporosis model assessed as increase in serum calcium level at 1 mg/kg/day, ig administered for 2 weeks by colorimetric method relative to control
Rattus norvegicus [2] = test: Antiosteoporotic effect in OVX-induced Wistar rat osteoporosis model assessed as decrease in serum ALP level at 1 mg/kg/day, ig administered for 2 weeks by colorimetric method relative to control
Rattus norvegicus [3] = test: Antiosteoporotic effect in OVX-induced Wistar rat osteoporosis model assessed as decrease in serum TRAP level at 1 mg/kg/day, ig administered for 2 weeks by colorimetric method relative to control
Rattus norvegicus [4] = test: Antiosteoporotic effect in OVX-induced Wistar rat osteoporosis model assessed as increase in serum estradiol level at 1 mg/kg/day, ig administered for 2 weeks by RIA relative to control
Rattus norvegicus [5] = test: Antiosteoporotic effect in OVX-induced Wistar rat osteoporosis model assessed as increase in serum calcitonin level at 1 mg/kg/day, ig administered for 2 weeks by RIA relative to control
Rattus norvegicus [6] = test: Antiosteoporotic effect in OVX-induced Wistar rat osteoporosis model assessed as decrease in serum CTX level at 1 mg/kg/day, ig administered for 2 weeks by ELISA relative to control
Rattus norvegicus [7] = test: Antiosteoporotic effect in OVX-induced Wistar rat osteoporosis model assessed as decrease in urinary DPD/Cr level at 1 mg/kg/day, ig administered for 2 weeks by ELISA relative to control; conditions: Urine
Rattus norvegicus [8] = test: Antiosteoporotic effect in OVX-induced Wistar rat osteoporosis model assessed as increase in femur wet weight at 1 mg/kg/day, ig administered for 2 weeks relative to control
Rattus norvegicus [9] = test: Antiosteoporotic effect in OVX-induced Wistar rat osteoporosis model assessed as increase in femur dry weight at 1 mg/kg/day, ig administered for 2 weeks relative to control
Rattus norvegicus [10] = test: Antiosteoporotic effect in OVX-induced Wistar rat osteoporosis model assessed as increase in femur ash weight at 1 mg/kg/day, ig administered for 2 weeks relative to control
Rattus norvegicus [11] = test: Antiosteoporotic effect in OVX-induced Wistar rat osteoporosis model assessed as increase in bone calcium content at 1 mg/kg/day, ig administered for 2 weeks by flame atomic absorption spectroscopy relative to control
Rattus norvegicus [12] = test: Antiosteoporotic effect in OVX-induced Wistar rat osteoporosis model assessed as increase in bone mineral density of left femur at 1 mg/kg/day, ig administered for 2 weeks by dual-energy X-ray absorptiometry relative to control
Rattus norvegicus [13] = test: Antiosteoporotic effect in OVX-induced Wistar rat osteoporosis model assessed as increase in bone mineral content of left femur at 1 mg/kg/day, ig administered for 2 weeks by dual-energy X-ray absorptiometry relative to control
Rattus norvegicus [14] = test: Antiosteoporotic effect in OVX-induced Wistar rat osteoporosis model assessed as increase in bone mineral density of third lumbar vertebra at 1 mg/kg/day, ig administered for 2 weeks by dual-energy X-ray absorptiometry relative to control
Rattus norvegicus [15] = test: Antiosteoporotic effect in OVX-induced Wistar rat osteoporosis model assessed as increase in bone mineral content of third lumbar vertebra at 1 mg/kg/day, ig administered for 2 weeks by dual-energy X-ray absorptiometry relative to control
Rattus norvegicus [16] = test: Antiosteoporotic effect in OVX-induced Wistar rat osteoporosis model assessed as increase in ultimate load of left femur at 1 mg/kg/day, ig administered for 2 weeks by […] relative to control
Rattus norvegicus [17] = test: Antiosteoporotic effect in OVX-induced Wistar rat osteoporosis model assessed as increase in ultimate load of third lumbar vertebra at 1 mg/kg/day, ig administered for 2 weeks by […] relative to control
Rattus norvegicus [18] = test: Antiosteoporotic effect in OVX-induced Wistar rat osteoporosis model assessed as increase in trabecular thickness in left femur at 1 mg/kg/day, ig administered for 2 weeks by histomorhological analysis relative to control
Rattus norvegicus [19] = test: Antiosteoporotic effect in OVX-induced Wistar rat osteoporosis model assessed as increase in trabecular number in left femur at 1 mg/kg/day, ig administered for 2 weeks by histomorhological analysis relative to control
Rattus norvegicus [20] = test: Antiosteoporotic effect in OVX-induced Wistar rat osteoporosis model assessed as decrease in trabecular separation in left femur at 1 mg/kg/day, ig administered for 2 weeks by histomorhological analysis relative to control
Rattus norvegicus [21] = test: Antiosteoporotic effect in OVX-induced Wistar rat osteoporosis model assessed as increase in serum calcium level at 20 to 40 mg/kg/day, ig administered for 2 weeks by colorimetric method relative to control
Rattus norvegicus [22] = test: Antiosteoporotic effect in OVX-induced Wistar rat osteoporosis model assessed as increase in serum phosphorus level at 20 to 40 mg/kg/day, ig administered for 2 weeks by colorimetric method relative to control
Rattus norvegicus [23] = test: Antiosteoporotic effect in OVX-induced Wistar rat osteoporosis model assessed as decrease in serum ALP level at 20 to 40 mg/kg/day, ig administered for 2 weeks by colorimetric method relative to control
Rattus norvegicus [24] = test: Antiosteoporotic effect in OVX-induced Wistar rat osteoporosis model assessed as decrease in serum TRAP level at 20 to 40 mg/kg/day, ig administered for 2 weeks by colorimetric method relative to control
Rattus norvegicus [25] = test: Antiosteoporotic effect in OVX-induced Wistar rat osteoporosis model assessed as increase in serum estradiol level at 40 mg/kg/day, ig administered for 2 weeks by RIA relative to control
Rattus norvegicus [26] = test: Antiosteoporotic effect in OVX-induced Wistar rat osteoporosis model assessed as increase in serum calcitonin level at 40 mg/kg/day, ig administered for 2 weeks by RIA relative to control
Rattus norvegicus [27] = test: Antiosteoporotic effect in OVX-induced Wistar rat osteoporosis model assessed as decrease in serum CTX level at 20 to 40 mg/kg/day, ig administered for 2 weeks by ELISA relative to control
Rattus norvegicus [28] = test: Antiosteoporotic effect in OVX-induced Wistar rat osteoporosis model assessed as decrease in urinary DPD/Cr level at 20 to 40 mg/kg/day, ig administered for 2 weeks by ELISA relative to control; conditions: Urine
Rattus norvegicus [29] = test: Antiosteoporotic effect in OVX-induced Wistar rat osteoporosis model assessed as increase in femur wet weight at 40 mg/kg/day, ig administered for 2 weeks relative to control
Rattus norvegicus [30] = test: Antiosteoporotic effect in OVX-induced Wistar rat osteoporosis model assessed as increase in femur dry weight at 40 mg/kg/day, ig administered for 2 weeks relative to control
Rattus norvegicus [31] = test: Antiosteoporotic effect in OVX-induced Wistar rat osteoporosis model assessed as increase in femur ash weight at 40 mg/kg/day, ig administered for 2 weeks relative to control
Rattus norvegicus [32] = test: Antiosteoporotic effect in OVX-induced Wistar rat osteoporosis model assessed as increase in bone calcium content at 40 mg/kg/day, ig administered for 2 weeks by flame atomic absorption spectroscopy relative to control
Rattus norvegicus [33] = test: Antiosteoporotic effect in OVX-induced Wistar rat osteoporosis model assessed as increase in bone mineral density of left femur at 20 to 40 mg/kg/day, ig administered for 2 weeks by dual-energy X-ray absorptiometry relative to control
Rattus norvegicus [34] = test: Antiosteoporotic effect in OVX-induced Wistar rat osteoporosis model assessed as increase in bone mineral content of left femur at 20 to 40 mg/kg/day, ig administered for 2 weeks by dual-energy X-ray absorptiometry relative to control
Rattus norvegicus [35] = test: Antiosteoporotic effect in OVX-induced Wistar rat osteoporosis model assessed as increase in bone mineral density of third lumbar vertebra at 20 to 40 mg/kg/day, ig administered for 2 weeks by dual-energy X-ray absorptiometry relative to control
Rattus norvegicus [36] = test: Antiosteoporotic effect in OVX-induced Wistar rat osteoporosis model assessed as increase in bone mineral content of third lumbar vertebra at 20 to 40 mg/kg/day, ig administered for 2 weeks by dual-energy X-ray absorptiometry relative to control
Rattus norvegicus [37] = test: Antiosteoporotic effect in OVX-induced Wistar rat osteoporosis model assessed as increase in ultimate load of left femur at 20 to 40 mg/kg/day, ig administered for 2 weeks by […] relative to control
Rattus norvegicus [38] = test: Antiosteoporotic effect in OVX-induced Wistar rat osteoporosis model assessed as increase in ultimate load of third lumbar vertebra at 20 to 40 mg/kg/day, ig administered for 2 weeks by […] relative to control
Rattus norvegicus [39] = test: Antiosteoporotic effect in OVX-induced Wistar rat osteoporosis model assessed as increase in trabecular thickness in left femur at 20 to 40 mg/kg/day, ig administered for 2 weeks by histomorhological analysis relative to control
Rattus norvegicus [40] = test: Antiosteoporotic effect in OVX-induced Wistar rat osteoporosis model assessed as increase in trabecular number in left femur at 20 to 40 mg/kg/day, ig administered for 2 weeks by histomorhological analysis relative to control
Rattus norvegicus [41] = test: Antiosteoporotic effect in OVX-induced Wistar rat osteoporosis model assessed as decrease in trabecular separation in left femur at 20 to 40 mg/kg/day, ig administered for 2 weeks by histomorhological analysis relative to control
Rattus norvegicus [42] = test: Antiosteoporotic effect in OVX-induced Wistar rat osteoporosis model assessed as increase in trabecular thickness in third lumbar vertebra at 20 to 40 mg/kg/day, ig administered for 2 weeks by histomorhological analysis relative to control
Rattus norvegicus [43] = test: Antiosteoporotic effect in OVX-induced Wistar rat osteoporosis model assessed as increase in trabecular number in third lumbar vertebra at 20 to 40 mg/kg/day, ig administered for 2 weeks by histomorhological analysis relative to control
Rattus norvegicus [44] = test: Antiosteoporotic effect in OVX-induced Wistar rat osteoporosis model assessed as decrease in trabecular separation in third lumbar vertebra at 20 to 40 mg/kg/day, ig administered for 2 weeks by histomorhological analysis relative to control

## C#C[C@@]1(O)[C@H](O)C[C@H]2[C@@H]3CCc4cc(OC5CCCC5)ccc4[C@H]3CC[C@@]21C
Rattus norvegicus [1]
  Activity: Active
Rattus norvegicus [2]
  Activity: Active
Rattus norvegicus [3]
  Activity: Active
Rattus norvegicus [4]
  Activity: Active
Rattus norvegicus [5]
  Activity: Active
Rattus norvegicus [6]
  Activity: Active
Rattus norvegicus [7]
  Activity: Active
Rattus norvegicus [8]
  Activity: Active
Rattus norvegicus [9]
  Activity: Active
Rattus norvegicus [10]
  Activity: Active
Rattus norvegicus [11]
  Activity: Active
Rattus norvegicus [12]
  Activity: Active
Rattus norvegicus [13]
  Activity: Active
Rattus norvegicus [14]
  Activity: Active
Rattus norvegicus [15]
  Activity: Active
Rattus norvegicus [16]
  Activity: Active
Rattus norvegicus [17]
  Activity: Active
Rattus norvegicus [18]
  Activity: Active
Rattus norvegicus [19]
  Activity: Active
Rattus norvegicus [20]
  Activity: Active

## O=C1O[C@H]2[C@@H]3OC(=O)c4cc(O)c(O)c(O)c4-c4c(cc(O)c(O)c4O)C(=O)OC[C@H]2O[C@@H](OC(=O)c2cc(O)c(O)c(O)c2)[C@@H]3OC(=O)c2cc(O)c(O)c3c2[C@@H]2C1=CC(=O)[C@](O)(O3)C2(O)O
Rattus norvegicus [21]
  Activity: Active
Rattus norvegicus [22]
  Activity: inactive
Rattus norvegicus [23]
  Activity: Active
Rattus norvegicus [24]
  Activity: Active
Rattus norvegicus [25]
  Activity: Active
Rattus norvegicus [26]
  Activity: Active
Rattus norvegicus [27]
  Activity: Active
Rattus norvegicus [28]
  Activity: Active
Rattus norvegicus [29]
  Activity: Active
Rattus norvegicus [30]
  Activity: Active
Rattus norvegicus [31]
  Activity: Active
Rattus norvegicus [32]
  Activity: Active
Rattus norvegicus [33]
  Activity: Active
Rattus norvegicus [34]
  Activity: Active
Rattus norvegicus [35]
  Activity: Active
Rattus norvegicus [36]
  Activity: Active
Rattus norvegicus [37]
  Activity: Active
Rattus norvegicus [38]
  Activity: Active
Rattus norvegicus [39]
  Activity: Active
Rattus norvegicus [40]
  Activity: Active
Rattus norvegicus [41]
  Activity: Active
Rattus norvegicus [42]
  Activity: Active
Rattus norvegicus [43]
  Activity: Active
Rattus norvegicus [44]
  Activity: inactive
